In the supplement of paper PMC10307832:

Assays:
Test in all cases: relative viability (nuclei count vs DMSO), 5 days (fraction); higher = more cells survive
Bleomycin + Vorinostat = compound: CC1=C(N=C(N=C1N)[C@H](CC(=O)N)NC[C@@H](C(=O)N)N)C(=O)N[C@@H]([C@H](C2=CN=CN2)OC3C(C(C(C(O3)CO)O)O)OC4C(C(C(C(O4)CO)O)OC(=O)N)O)C(=O)N[C@H](C)[C@H]([C@H](C)C(=O)N[C@@H]([C@@H](C)O)C(=O)NCCC5=NC(=CS5)C6=NC(=CS6)C(=O)NCCC[S+](C)C)O [Bleomycin] + O=C(CCCCCCC(=O)Nc1ccccc1)NO [Vorinostat] (partner 1 µM); details: main component drawn
How it was run: (§1)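 Relative viability equals treated-well nuclei counts divided by vehicle-well nuclei counts. Counts came from 4× images of lung cancer cell lines grown in 1536-well plates for 5 days after pin-tool dosing on the day after seeding. Dosing used one drug alone or a fixed anchor-drug dose plus five library-drug doses (not always all listed) in √10 steps, and values are medians of duplicate plates.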

Etoposide + Vorinostat = compound: COc1cc([C@@H]2c3cc4c(cc3[C@@H](O[C@@H]3O[C@@H]5CO[C@@H](C)O[C@H]5[C@H](O)[C@H]3O)[C@H]3COC(=O)[C@H]23)OCO4)cc(OC)c1O [Etoposide] + O=C(CCCCCCC(=O)Nc1ccccc1)NO [Vorinostat] (partner 1 µM)
How it was run: as §1

Etoposide + Lapatinib = compound: COc1cc([C@@H]2c3cc4c(cc3[C@@H](O[C@@H]3O[C@@H]5CO[C@@H](C)O[C@H]5[C@H](O)[C@H]3O)[C@H]3COC(=O)[C@H]23)OCO4)cc(OC)c1O [Etoposide] + CS(=O)(=O)CCNCc1ccc(-c2ccc3ncnc(Nc4ccc(OCc5cccc(F)c5)c(Cl)c4)c3c2)o1 [Lapatinib] (partner 2 µM)
How it was run: as §1

Bleomycin + Phenformin = compound: CC1=C(N=C(N=C1N)[C@H](CC(=O)N)NC[C@@H](C(=O)N)N)C(=O)N[C@@H]([C@H](C2=CN=CN2)OC3C(C(C(C(O3)CO)O)O)OC4C(C(C(C(O4)CO)O)OC(=O)N)O)C(=O)N[C@H](C)[C@H]([C@H](C)C(=O)N[C@@H]([C@@H](C)O)C(=O)NCCC5=NC(=CS5)C6=NC(=CS6)C(=O)NCCC[S+](C)C)O [Bleomycin] + N=C(N)NC(=N)NCCc1ccccc1 [Phenformin] (partner 250 µM); details: main component drawn
How it was run: as §1

Cell Line | relative viability (Bleomycin + Vorinostat; first compound 0.01 µM) | relative viability (Bleomycin + Vorinostat; first compound 0.03162 µM) | relative viability (Bleomycin + Vorinostat; first compound 0.1 µM) | relative viability (Bleomycin + Vorinostat; first compound 0.3162 µM) | relative viability (Bleomycin + Vorinostat; first compound 1 µM) | relative viability (Etoposide + Vorinostat; first compound 0.01 µM) | relative viability (Etoposide + Vorinostat; first compound 0.03162 µM) | relative viability (Etoposide + Vorinostat; first compound 0.1 µM) | relative viability (Etoposide + Vorinostat; first compound 0.3162 µM) | relative viability (Etoposide + Vorinostat; first compound 1 µM) | relative viability (Etoposide + Lapatinib; first compound 0.01 µM) | relative viability (Etoposide + Lapatinib; first compound 0.03162 µM) | relative viability (Etoposide + Lapatinib; first compound 0.1 µM) | relative viability (Etoposide + Lapatinib; first compound 0.3162 µM) | relative viability (Etoposide + Lapatinib; first compound 1 µM) | relative viability (Bleomycin + Phenformin; first compound 0.01 µM) | relative viability (Bleomycin + Phenformin; first compound 0.03162 µM) | relative viability (Bleomycin + Phenformin; first compound 0.1 µM) | relative viability (Bleomycin + Phenformin; first compound 0.3162 µM) | relative viability (Bleomycin + Phenformin; first compound 1 µM)
NCI-H1975 | 0.482 | 0.514 | 0.386 | 0.215 | 0.162 | 0.726 | 0.728 | 0.739 | 0.476 | 0.328 | 0.857 | 1.04 | 0.739 | 0.528 | 0.214 | 0.322 | 0.316 | 0.253 | 0.162 | 0.123
CAL-12T | 0.542 | 0.532 | 0.351 | 0.166 | 0.155 | 0.798 | 0.782 | 0.724 | 0.403 | 0.213 | 0.73 | 0.688 | 0.434 | 0.52 | 0.356 | 0.474 | 0.466 | 0.297 | 0.175 | 0.163
NCI-H1623 |  |  |  |  |  |  |  |  |  |  |  |  |  |  |  | 0.548 | 0.631 | 0.513 | 0.442 | 0.333
HCC-44 | 0.906 | 0.989 | 0.733 | 0.459 | 0.383 | 1.12 | 1.04 | 1.21 | 1.02 | 0.727 | 0.989 | 0.953 | 1.06 | 0.833 | 0.245 | 0.104 | 0.0979 | 0.075 | 0.0859 | 0.0579
EKVX | 0.724 | 0.611 | 0.607 | 0.366 | 0.411 | 0.543 | 0.746 | 0.512 | 0.444 | 0.253 | 0.195 | 0.197 | 0.153 | 0.159 | 0.143 | 0.234 | 0.255 | 0.196 | 0.2 | 0.157
NCI-H1651 | 0.519 | 0.505 | 0.392 | 0.356 | 0.152 | 0.602 | 0.65 | 0.399 | 0.387 | 0.189 | 0.753 | 0.774 | 0.614 | 0.199 | 0.121 | 0.314 | 0.298 | 0.303 | 0.17 | 0.189
NCI-H1944 | 0.284 | 0.244 | 0.265 | 0.154 | 0.152 | 0.532 | 0.532 | 0.334 | 0.282 | 0.147 | 0.76 | 1.01 | 0.499 | 0.363 | 0.226 | 0.145 | 0.144 | 0.141 | 0.116 | 0.102
NCI-H1703 |  |  |  |  |  |  |  |  |  |  |  | 1.14 | 0.866 | 0.376 | 0.271 |  |  |  |  | 
Calu-6 |  |  |  |  |  |  |  |  |  |  | 1.04 | 0.903 | 1.13 | 0.435 | 0.284 |  |  |  |  | 
EBC-1 |  |  |  |  |  |  |  |  |  |  | 0.2 | 0.245 |  | 0.214 | 0.196 |  |  |  |  | 
A-427 | 0.753 | 0.768 | 0.717 | 0.46 | 0.271 | 0.864 | 0.864 | 0.761 | 0.625 | 0.309 | 1.04 | 1.06 | 0.807 | 0.604 | 0.196 | 0.253 | 0.349 | 0.269 | 0.175 | 0.113
